Source: EP0470323A2, “New salts of the nicotinic acid with aminobenzylic compounds and their pharmaceutical use” (BROMLEY LIMITED, priority 1990, dated 1992)

Legend:
[1] = system: Central artery of a rabbit's ear; assay: In vitro antispastic action, adrenalin-induced spasm of the perfused isolated artery; details: spasm induced by Adrenalin, n=4
Method: An "in vitro" method has been used, according to which the withdrawal of the central artery of a rabbit's ear with the relevant nervous connections and the equipment of an appropriate seat for secluded organs was designed (Fleckenstein A., British Journal of Pharmacology 7, 533, 1952).
On the artery they did install a three-ways tube, connected with a peristaltic pump and with a mercury manometer to record the perfusion pressure. The artery was perfused with a rebs liquid at the speed of 2,5 ml/minute. The contractions were induced by injecting into the vessel 0,1 ml adrenalin at the concentration of 1 mcg/ml. The compound according to the example 1 has been added to the bath at concentrations of 0,5 - 1 - 2 uM, five minutes before the adrenalin (four preparations per concentration). As comparison drugs, chlorhydra ted Buflomedil and Papaverin have been used. The activity of the material under investigation has been appreciated in terms of percentages referring to the concentration induced by the Adrenalin (and expressed with DE₅₀) and the relevant forbidding.

red cells in the rat [2] = assay: Red cell deformability / filtration, Schmidt-Schönbein method; format: in vivo; details: dose 3 x 0,5 mM/kg/os
Source text: (§1) steresis (Teiltel P.: Nouv. Rev. Franç. Hématol. 7, 195, 1967). Any alteration, almost undoubtely at the level of the red cell's membrane, cause some damaging variations of the red cell's elasticity thus making more difficult the passing through the capillary vessels having more reduced diameter, and therefore increasing the flow resistance in the peripheral vessels systems. In order to determine the effect caused by the compound according to the Example 1, on these features of the red cell, the method described by Schmidt, Schonbein and colleagues (Blut 26, 369, 1973) has been used.
In the circulatory flow, the above mentioned capillary vessels being excluded, the blood cells do normally circulate being attached between each other because of their adhesiveness. In order to study this adhesion force, the above mentioned Teitel method has been used. Male rats of 150 g body weight approximately have been employed, and they have been treated for three consecutive days with 0,5 mM/kg/os of the compound according to the Example 1, or otherwise Buflomedil, or even Pentosiphillin used as comparison substance. After the last treatment the animals, without eating from 18 hours, have been killed in a light ethereal anaesthesy and the blood was collected over an 0,2 molar EDTA (9 and 1 volumes respectively). The red cells filtering possibility, measured with the Teitel method, wherein the quantity of red cells passing, in high haematocritical conditions, through a paper filter with holes of 20-40 µm in a previously determined time, has been ascertained as follows: the blood was centrifuged for ten minutes at 2000 rpm in order to obtain the massing of the red cells, two ml of the blood collected as above were put into an upside down turned cone made with filtering paper, being previously wetted with a physiological solution. The volume passing through the filter in 2 - 4 - 8 and 16 minutes is then measured. […]

red cells in the rat [3] = assay: Red cell adhesivity / filtration, Teitel method; format: in vivo
Source text: as §1
In the circulatory flow, the above mentioned capillary vessels being excluded, the blood cells do normally circulate being attached between each other because of their adhesiveness. In order to study this adhesion force, the above mentioned Teitel method has been used. Male rats of 150 g body weight approximately have been employed, and they have been treated for three consecutive days with 0,5 mM/kg/os of the compound according to the Example 1, or otherwise Buflomedil, or even Pentosiphillin used as comparison substance. After the last treatment the animals, without eating from 18 hours, have been killed in a light ethereal anaesthesy and the blood was collected over an 0,2 molar EDTA (9 and 1 volumes respectively). The red cells filtering possibility, measured with the Teitel method, wherein the quantity of red cells passing, in high haematocritical conditions, through a paper filter with holes of 20-40 µm in a previously determined time, has been ascertained as follows: the blood was centrifuged for ten minutes at 2000 rpm in order to obtain the massing of the red cells, two ml of the blood collected as above were put into an upside down turned cone made with filtering paper, being previously wetted with a physiological solution. The volume passing through the filter in 2 - 4 - 8 and 16 minutes is then measured. The average filtration time T 1/2 is reckoned on semi-logarithmic paper by putting on the abscissae the logarithm of the time, and on the ordinates the percentage of blood filtered. In order to follow the Schmidt Schönbein method, the here after described proceeding has been performed: 0,2 ml of a suspension of red cells at 2% obtained by diluting the blood with the autological plasma, then it was placed into an appropriate device permitting to filter this blood through a filter (millipores) of 5 µm mashes at a filtration pressure of 50 mm water. With a chronometer one determines the time required for the passage of the whole sample through the filter.
At time same time, one measures, in the same conditions, the same parameter for a plasma sample. One calculates then the relative filtration time by dividing the time required to filter the diluted blood sample by the time being necessary to filter the plasma sample. For each group the average and the standard error of the individual data obtained was reckoned. The statistical evaluation was obtained by means of the Dunnett test.

[4] = system: aggregation of the platelets caused by the collagene; assay: Anti-aggregating ex vivo activity against collagen in the rat
Method: Six groups of 15 male rats of 200 - 250 g have been used.
The blood taken from the three rats of each group has been mixed and centrifuged during 6 minutes at 1400 rpm, at room temperature. After having taken the plasma full of platelets (PRP) the thereunder floating material has been centrifuged again (4000 rpm during 10 minutes) in order to have the plasma with few platelets (PPP) separated from the balance. The PRP has been diluted with a part of PPP in order to bring the number of platelets to 350 ± 50 x 10³/mm³. The aggregation has been evaluated in accordance with the method of Minsker D.H. and coll. (J. Pharmacol.Exp.Ther. 210 37 1979) by using an ELVI 840 two-channels aggregometer and an Omniscribe recorder B.500. A quantity of 0,25 ml PRP has been used, transferred into the aggregometer for two minutes at 37°C and stirred at 1000 rpm. The light intensity was arranged in such a way, to obtain 0% transmittance with the PRP and 100% with the PPP. After 2′ incubation, by means of microsyringe the collagene was added to the PRP in a volume quantity of 5 mcl with the final concentration of 4 mcg/ml.
From the aggregation trace of the recorder the following data have been evaluated: • a) latent time of the aggregation (seconds between the introductions of collagene and the starting of the aggregation) • b) transmittance increase percentage (maximum aggregation). The same proceeding was repeated for all animals, always by mixing the blood of three rats belonging to the same group and by obtaining in this manner five aggregation curves per group.

[5] = system: skin temperature of the mouse's paw; assay: Peripheral vessel-dilating activity in the mouse (skin temperature of hind paws); format: in vivo; details: listed as buflomedil HCl; for Temperature (°C) of the hind paws (n=10): intravenous, dose 0,030 mM/kg/iv; for Temperature (°C) of the hind paws: oral, dose 0,500 mM/kg/os
Method: The method of Richter W. (Acta Pharm. Toxicol. 21, 91; 1974) was used; it consists in determining, at fixed time intervals after the treatment, the skin temperature of the mouse's paw, by keeping the animals in rooms at a constant temperature of 21°C.
Some groups of ten male mouses each have been used; the weight of each animal was 30 g approximately.
The compound according to the Example 1 has been tested "per os" at three basic levels of the doses (0,125 - 0,25 - 0,5 mM/kg) and by intravenous injection at two dose levels (0,015 and 0,03 mM/kg), in comparison with one sole dose of Papaverin and chlorhydrated Buflomedil (0,5 mM/kg "per os" and 0,03m M/kg intravenous). The observation of the skin temperature at the mouse's paw was made before the treatment, 30, 60 and 120 minutes after the "per os" treatment, […] (A-Hl Ellab) connected with an Ellab electric recorder. Of each animal the temperature of both hind paws has been measured, and the values obtained have been averaged .

[6] = rat, 1,00 mM/kg os for 4 days, PRP 2 hours after last treatment, collagene 4 mcg/ml, listed as Chlorhydrated Buflo-medil
[7] = rat, 1,00 mM/kg os for 4 days, listed as Chlorhydrated Buflo-medil
[8] = 0 minutes (before the treatment)

COc1cc(OC)c(C(=O)CCCN2CCCC2)c(OC)c1 [Buflomedil, reference compound]
EC50 ([1]; Oryctolagus cuniculus, read-out: DE50 (the source's name)): 670 nM
% inhibi-tions of the con-tractions ([1]; concentration 0,5 μ M): 41%
% inhibi-tions of the con-tractions ([1]; concentration 1,0 μ M): 60%
% inhibi-tions of the con-tractions ([1]; concentration 2,0 μ M): 87%
Schmidt-Schönbein method Δ % vs contr. (red cells in the rat [2]): 24,2%
Teitel method Δ % vs contr. (red cells in the rat [3]; dose 3 x 0,5 mM/kg/os): 20,3%
Teitel method T1/2 min. M ± E.S. (red cells in the rat [3]; dose 3 x 0,5 mM/kg/os (three consecutive days)): 2,90 ± 0,28 min.
effect relative to that caused by the same dose of the compound according to the example 1 ([4]; rat, 1 mM/kg os, platelet aggregation by collagene): approximately 50%
Latency time (sec.) [4, 6]: 51,9 ± 3,7 sec.
Transmittance percentage (maximum aggregation) [4, 6]: 54,2 ± 4,5%
Latency time, % variation vs controls [4, 7]: +38,4%
Transmittance percentage, % variation vs controls [4, 7]: -31%
Temperature (°C) of the hind paws (n=10) [5, 8]: 24,3 ± 0,32 °C
Temperature (°C) of the hind paws (n=10) ([5]; 30 minutes from the treatment): 26,6 ± 0,20 °C
Temperature (°C) of the hind paws (n=10) ([5]; 60 minutes from the treatment): 26,3 ± 0,24 °C
Temperature (°C) of the hind paws (n=10) ([5]; 120 minutes from the treatment): 26,0 ± 0,18 °C
Temperature (°C) of the hind paws [5, 8]: 24,2 ± 0,30 °C
Temperature (°C) of the hind paws ([5]; 30 minutes from the treatment): 25,8 ± 0,25 °C
Temperature (°C) of the hind paws ([5]; 60 minutes from the treatment): 26,5 ± 0,50 °C
Temperature (°C) of the hind paws ([5]; 120 minutes from the treatment): 26,1 ± 0,42 °C
